The values below come from patent US8808702B2, “Sulfide, sulfoxide and sulfone chalcone analogues, derivatives thereof and therapeutic uses thereof” (Temple University-of the Commonwealth System of Higher …, priority 2006, dated 2014).

Like-named read-outs stand apart in the source and are kept apart here.

Data set [1] concerns K562 (chronic myelogenous leukaemia). The data set is described as follows: Effect of compounds on tumor cell lines (assay of Latham et al.), K562. Type of data set: cell-based. To be noted: K562 cells, read-out: K 562 potency (IC50). In a few lines:
(§1)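 After 96 h of exposure to compound (1–100 μM in DMSO; one compound at 0.1–100 μM), effects were scored by inverted-microscope inspection, with trypan blue viable counts by hemacytometer when required. Cells were seeded at 2.5×10^4 per well and dosed 24 h after plating.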

The subject of data set [2] is DU145 (prostate cancer). In words: Effect of compounds on tumor cell lines (assay of Latham et al.), DU145. The data set is classed as cell-based. The conditions noted are these: DU145 cells, read-out: DU 145 potency (IC50). The method, boiled down:
as §1

Where [3] appears, read: 96 hours after treatment, 1 μM to 100 μM.
[4] abbreviates: Table 3, examined 96 hours after treatment, 1 μM to 100 μM in DMSO.
Where [5] appears, read: Homo sapiens, Table 4, examined 96 hours after treatment, 1 μM to 100 μM in DMSO.
Setting [6] is: Homo sapiens, DU-145, Table 4, examined 96 hours after treatment, 1 μM to 100 μM in DMSO.
The mark [7] stands for this setting: Table 4, examined 96 hours after treatment, 1 μM to 100 μM in DMSO.

Turning to `O=C(/C(=C\c1ccc(I)cc1)Sc1ccc(Br)cc1)c1ccc(Br)cc1` [Example 45, (E)-1-(4-bromophenyl)-2-(4-bromophenylthio)-3-(4-Iodophenyl)-prop-2-en-1-one], the melting point fell in the range of 128 to 130 °C. The IC50 in data set [1] (Homo sapiens, Table 1, examined 96 hours after treatment, 1 μM to 100 μM in DMSO) was in the range of 1 to 10 µM. In data set [2] (Homo sapiens, DU-145, Table 1, examined 96 hours after treatment, 1 μM to 100 μM in DMSO), the IC50 lay within 1 to 10 µM.

`O=C(/C(=C\c1ccc(F)c([N+](=O)[O-])c1)SCc1ccc(F)cc1)c1ccc(F)cc1` [Example 341]: the figures for the IC50 in data set [1] (setting [3]) and in data set [2] (setting [3]) were at most 1 µM and 1 to 10 µM, respectively.

Take `O=C(/C(=C\c1ccc(F)c([N+](=O)[O-])c1)SCc1ccc(F)cc1)c1ccc(O)cc1` [Example 342]: the concentration for half-maximal inhibition (IC50) in data set [1] (setting [3]) and in data set [2] (setting [3]) was at most 1 µM each time. Consider `NS(=O)(=O)c1ccc(C(=O)/C(=C\c2ccc(F)c([N+](=O)[O-])c2)SCc2ccc(F)cc2)cc1` [Example 343], for which the IC50 in data set [1] (setting [3]) and in data set [2] (setting [3]) was 1 to 10 µM in each case. As for `O=C(/C(=C\c1ccc(F)c([N+](=O)[O-])c1)SCc1ccc(F)cc1)c1ccccc1` [Example 344], the IC50 in data set [1] (setting [3]) was at most 1 µM; in data set [2] (setting [3]) it was 1 to 10 µM. Regarding `COc1ccc(CS/C(=C/c2ccc(F)cc2)C(=O)c2ccc(Cl)cc2)cc1` [Example 345], the IC50 in data set [1] (setting [3]) fell in the range of 1 to 10 µM; in data set [2] (setting [3]), 10 to 25 µM. Turning to `COc1ccc(/C=C(/SCc2ccc(OC)cc2)C(=O)c2ccc(Cl)cc2)cc1` [Example 346], the figures for the IC50 in data set [1] (setting [3]) and in data set [2] (setting [3]) were 1 to 10 µM and 10 to 25 µM, respectively. For `Cc1ccc(CS/C(=C/c2ccc(F)c([N+](=O)[O-])c2)C(=O)c2ccc(C(=O)O)cc2)cc1` [Example 347] the same measures were at most 1 µM and 1 to 10 µM. Regarding `Cc1ccc(CS/C(=C/c2ccc(F)c([N+](=O)[O-])c2)C(=O)c2ccc(C(=O)O)cc2)cc1` [Example 348], the figures for the IC50 in data set [1] (setting [3]) and in data set [2] (setting [3]) were 1 to 10 µM and 10 to 25 µM, respectively. As for `Cc1ccc(CS/C(=C/c2ccc(F)c([N+](=O)[O-])c2)C(=O)c2ccc(Cl)c([N+](=O)[O-])c2)cc1` [Example 349], the results for the 50% inhibitory concentration (IC50) in data set [1] (setting [3]) and in data set [2] (setting [3]) were at most 1 µM and 1 to 10 µM, respectively.

In the case of `O=C(O)c1ccc(C(=O)/C(=C\c2ccc(Cl)c([N+](=O)[O-])c2)SCc2ccc(C(F)(F)F)cc2)cc1` [Example 350], the IC50 in data set [1] (setting [3]) and in data set [2] (setting [3]) was 1 to 10 µM in each case.

Regarding `O=C(O)c1ccc(C(=O)/C(=C\c2ccc(F)c([N+](=O)[O-])c2)SCc2ccc(C(F)(F)F)cc2)cc1` [Example 351], the values for the IC50 in data set [1] (setting [3]) and in data set [2] (setting [3]) were at most 1 µM and 1 to 10 µM, respectively.

For `O=C(O)c1ccc(C(=O)/C(=C\c2ccc(F)c([N+](=O)[O-])c2)SCc2nc3ccc(Br)cc3[nH]2)cc1` [Example 352], the IC50 in data set [1] (setting [3]) and in data set [2] (setting [3]) was 1 to 10 µM each time. As for `O=C(O)c1ccc(C(=O)/C(=C\c2ccc(F)c([N+](=O)[O-])c2)SCc2ccccc2)cc1` [Example 353], the IC50 in data set [1] (setting [3]) is at most 1 µM; in data set [2] (setting [3]), 1 to 10 µM. With `COc1cc(OC)c(/C=C(\C(=O)c2ccc(Cl)cc2)[S+]([O-])Cc2ccccc2Cl)c(OC)c1` (stereo not drawn) [Example 354], the IC50 in data set [1] (setting [4]) was 50 to 100 µM; in data set [2] (setting [4]) it was 10 to 25 µM.

Turning to `O=C(/C(=C\c1ccc(F)cc1C(F)(F)F)[S+]([O-])Cc1ccc(Cl)cc1)c1ccc(Cl)cc1` (stereo not drawn) [Example 355], the IC50 in data set [1] (setting [4]) and in data set [2] (setting [4]) was 50 to 100 µM each time. `Cc1ccc(/C=C(\C(=O)c2ccc(Cl)cc2)S(=O)(=O)Cc2ccc(Cl)cc2Cl)s1` [Example 356]: the melting point is 115 to 117 °C. In addition, in data set [1] (setting [5]), the IC50 is 25 to 50 µM. Also, the IC50 in data set [2] (setting [6]) is 10 to 25 µM. Molecule `COc1cc(OC)c(/C=C(\C(=O)c2ccc(Cl)cc2)S(=O)(=O)Cc2ccccc2Cl)c(OC)c1` [Example 357] showed a melting point of 185 to 192 °C. Moreover, in data set [1] (setting [5]), the IC50 lay in the range of 25 to 50 µM. Also, in data set [2] (setting [6]), the IC50 is over 100 µM.

As for `O=C(/C(=C\c1ccccc1OCc1ccccc1)S(=O)(=O)Cc1ccccc1Cl)c1ccc(Cl)cc1` [Example 358], the melting point fell in the range of 137 to 148 °C. Moreover, the IC50 in data set [1] (setting [5]) was in the range of 1 to 10 µM. Further, the IC50 in data set [2] (setting [6]) was in the range of 1 to 10 µM. On to `COc1cc(/C=C(\C(=O)c2ccc(Cl)cc2)S(=O)(=O)Cc2ccccc2Cl)cc(OC)c1` [Example 359], for which the melting point was 133 to 138 °C. In data set [1] (setting [5]), the IC50 is 50 to 100 µM. Further, the IC50 in data set [2] (setting [6]) is over 100 µM.

`O=C(/C(=C\c1ccc(Br)cc1)S(=O)(=O)Cc1ccccc1Cl)c1ccc(Cl)cc1` [Example 360] yielded a melting point of 186 to 192 °C. Besides, the half-maximal inhibitory concentration (IC50) in data set [1] (setting [5]) was in the range of 25 to 50 µM. Further, in data set [2] (setting [6]), the IC50 fell in the range of 25 to 50 µM.

For `CCOc1ccc(/C=C(\C(=O)c2ccc(Cl)cc2)S(=O)(=O)Cc2ccccc2Cl)cc1OC` [Example 361], the melting point is 123 to 128 °C. Besides, the IC50 in data set [1] (setting [5]) lay in the range of 10 to 25 µM. Besides, the IC50 in data set [2] (setting [6]) was 10 to 25 µM.

In the case of `O=C(/C(=C\c1ccc(O)c([N+](=O)[O-])c1)S(=O)(=O)Cc1ccccc1Cl)c1ccc(Cl)cc1` [Example 362], the melting point lay within 222 to 226 °C. The molecule `COc1ccc(/C=C(\C(=O)c2ccc(Cl)cc2)S(=O)(=O)Cc2ccccc2Cl)cc1` [Example 363] had a melting point of 195 to 210 °C. For `O=C(/C(=C\c1cc(Br)c(O)c(Br)c1)S(=O)(=O)Cc1ccc(Br)cc1)c1ccc(Br)cc1` [Example 368], the IC50 in data set [1] (setting [5]) and in data set [2] (setting [6]) was 25 to 50 µM in each case.

In the case of `O=C(/C(=C\c1cc(Cl)c(O)c(Cl)c1)S(=O)(=O)Cc1ccc(Br)cc1)c1ccc(Br)cc1` [Example 369], the concentration for half-maximal inhibition (IC50) in data set [1] (setting [5]) and in data set [2] (setting [6]) was 25 to 50 µM each time. On to `CCN(CC)CCNC(=O)c1c(C)[nH]c(/C=C(\C(=O)c2ccc(Br)cc2)S(=O)(=O)Cc2ccc(Br)cc2)c1C` [Example 370], for which the half-maximal inhibitory concentration (IC50) in data set [1] (setting [7]) and in data set [2] (setting [7]) was 1 to 10 µM in each case.

With `O=C(O)c1ccc(C(=O)/C(=C\c2ccc(Cl)c([N+](=O)[O-])c2)S(=O)(=O)Cc2ccc(Br)cc2)cc1` [Example 372], the IC50 in data set [1] (setting [5]) and in data set [2] (setting [6]) was 25 to 50 µM throughout. As to `O=C(/C(=C\c1ccc(O)c([N+](=O)[O-])c1)S(=O)(=O)Cc1ccc(Br)cc1)c1c(F)c(F)c(F)c(F)c1F` [Example 373], the IC50 in data set [1] (setting [7]) and in data set [2] (setting [7]) was 50 to 100 µM in each case.

`CN(C)c1ccc(/C=C(\C(=O)c2ccc(C(=O)O)cc2)S(=O)(=O)Cc2ccc(Cl)cc2)cc1` [Example 390] came in with a melting point of 176 to 180 °C. Turning to `O=C(/C(=C\c1ccc(O)c([N+](=O)[O-])c1)S(=O)(=O)Cc1ccc(Cl)cc1)c1ccc(Cl)cc1` [Example 393], the IC50 in data set [1] (setting [7]) and in data set [2] (setting [7]) was 25 to 50 µM throughout.

The molecule `O=C(/C(=C\c1ccccc1OCc1ccccc1)S(=O)(=O)Cc1ccc(F)cc1)c1ccc(Cl)cc1` [Example 402] gave a melting point of 139 to 145 °C. The same measure, in the same setting: the result for `COc1ccccc1/C=C(\C(=O)c1ccc(Br)cc1)S(=O)(=O)Cc1ccc(F)cc1` [Example 404] reads 145 to 151 °C. `O=C(/C(=C\c1ccc(Br)cc1)S(=O)(=O)Cc1ccc(F)cc1)c1ccc(Cl)cc1` [Example 410]: the 50% inhibitory concentration (IC50) was 50 to 100 µM in data set [1] (setting [5]) and over 100 µM in data set [2] (setting [6]). `O=C(/C(=C\c1ccc(O)cc1)S(=O)(=O)Cc1ccc(F)cc1)c1ccc(Br)cc1` [Example 413] had a melting point of 188 to 192 °C.

For the molecule `COc1ccc(/C=C(\C(=O)c2ccc(Br)cc2)S(=O)(=O)Cc2ccc(F)cc2)cc1` [Example 415], the melting point lay in the range of 121 to 123 °C. The molecule `Cc1ccc(/C=C(\C(=O)c2ccc(Br)cc2)S(=O)(=O)Cc2ccc(F)cc2)s1` [Example 416] returned a melting point of 156 to 161 °C. `Cc1ccc(/C=C(\C(=O)c2ccc(Cl)cc2)S(=O)(=O)Cc2ccc(F)cc2)s1` [Example 417] gave a melting point of 116 to 120 °C.

As for `COc1ccc(CS(=O)(=O)/C(=C/c2c(OC)cc(OC)cc2OC)C(=O)c2ccc(OC)cc2)cc1` [Example 422, (E)-1-(4-methoxyphenyl)-2-(4-methoxybenzylsulfonyl)-3-(2,4,6-trimethoxyphenyl)-prop-2-en-1-one], the melting point lay in the range of 60 to 62 °C.

For `COc1ccccc1/C=C(\C(=O)c1ccc(Cl)cc1)S(=O)(=O)Cc1ccc(C)cc1` [Example 428], the IC50 in data set [1] (setting [5]) and in data set [2] (setting [6]) was 10 to 25 µM in each case. As for `CSc1ccc(/C=C(\C(=O)c2ccc(Br)cc2)S(=O)(=O)Cc2ccc(C)cc2)cc1` [Example 436], the IC50 in data set [1] (setting [5]) and in data set [2] (setting [6]) was 10 to 25 µM in each case. For `COC(=O)c1ccc(C(=O)/C(=C\c2ccc(F)c([N+](=O)[O-])c2)SCc2ccc(Br)cc2)cc1` [Example 441, (E)-methyl-4-(2-(4-bromobenzylthio)-3-(4-fluoro-3-nitrophenyl)acryloyl)benzoate], the IC50 in data set [1] (Homo sapiens, Table 5, examined 96 hours after treatment, 0.1 μM to 100 μM in DMSO) was at most 1 µM; in data set [2] (Homo sapiens, DU-145, Table 5, examined 96 hours after treatment, 0.1 μM to 100 μM in DMSO) it was at most 1 µM.

By IC50 is commonly meant the concentration at which inhibition is half-maximal. As a reminder, the melting point is the temperature, or range, at which the solid turns liquid.
